Reference: patent US6914045B2, “Glycopeptide antibiotics” (Wyeth Holdings Corporation, priority 2001, dated 2005)
≈ marks a conversion by molar mass, not a printed value. Read-outs that look alike come from different tables or passages of the source.

Columns and labels:
[1] = tested on: Gram-positive bacteria comprised of Staphylococcus sp., Streptococcus sp. and Enterococcus sp.; assay: in vitro antibacterial evaluation, MIC by broth dilution (strain not given); format: cell-based
Protocol: Methods for in vitro Antibacterial Evaluation (Table 1)
The minimum inhibitory concentration (MIC), the lowest concentration of the antibiotic which inhibits growth of the test organism, is determined by the broth dilution method using Muller-Hinton II […] (Baltimore Biological Laboratories) following the recommendations of the National Committee for Clinical Laboratory Standards [Methods for dilution antimicrobial susceptibility tests for bacteria that grow aerobically, approved standard M7-A2, National Committee for Clinical Laboratory Standards, Villanova, Pa.].
An inoculum level of 5×10^5 CFU/mL, and a range of antibiotic concentrations (64-0.06 μg/mL) is used. […] The test organisms include a spectrum of Gram-positive bacteria comprised of Staphylococcus sp., Streptococcus sp. and Enterococcus sp. These organisms include recent clinical isolates that are resistant to methicillin, penicillin and/or vancomycin.

[2] = tested on: Staphylococcus aureus-SMITH (GC 4543); assay: acute lethal infection in mice; format: in vivo; details: Staphylococcus, read-out: median effective dose (ED50), Staphylococcus aureus-SMITH (GC 4543)
Procedure, shortened: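 Survival at 7 days, pooled from three independent tests, yields ED50 values. Treatment is intravenous, 30 min after ip infection of female CD-1 mice, using an inoculum lethal to untreated controls within 24-48 hr.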

Streptococcus sp. = assay: in vitro antibacterial evaluation, MIC by broth dilution; format: cell-based; details: broth dilution, 18 hours at 35° C.
Procedure, shortened: (§1)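 MIC, the lowest antibiotic concentration preventing growth, was read across 64-0.06 μg/mL with 5×10^5 CFU/mL inoculum. Method followed NCCLS M7-A2 broth dilution using Mueller-Hinton II; Gram-positive strains covered recent methicillin-, penicillin- and/or vancomycin-resistant clinical isolates.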

Staphylococcus sp. = assay: as above; format: cell-based; details: broth dilution, 18 hours at 35° C.
Procedure, shortened: as §1

Escherichia coli = assay: as above; format: cell-based; details: 18 hours at 35° C.
Procedure, shortened: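 Inoculum 5×10^5 CFU/mL; concentrations 64 to 0.06 μg/mL; MIC defined as lowest inhibitory level. Conducted by broth dilution under NCCLS guidelines.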

Enterococcus sp. = assay: as above; format: cell-based; details: broth dilution, 18 hours at 35° C.
Procedure, shortened: as §1

CC(c1ccccc1)[C@@H]1NC(=O)CNC(=O)[C@H](CO)NC(=O)[C@H](C(O)C2CNC(=N)N2)NC(=O)[C@H](C(O)C2CNC(=N)N2)NC(=O)[C@H](Cc2ccc(O)cc2)NC1=O (stereo partly drawn) [Example 280b, Cyclo[glycyl-β-methylphenylalanyltyrosyl-3-(2-iminoimidazolidin-4-yl)seryl-3-(2-iminoimidazolidin-4-yl)serylseryl]]
MIC ([1]; Table 2 section r2574-r2600, column 1, 18 hours at 35° C., read-out: MIC, strain of column 1): 128 µg/mL (≈ 158 µM)
MIC ([1]; Table 2 section r2574-r2600, column 2, 18 hours at 35° C., read-out: MIC, strain of column 2): 64 µg/mL (≈ 79.1 µM)
MIC ([1]; Table 2 section r2574-r2600, column 3, 18 hours at 35° C., read-out: MIC, strain not given): 128 µg/mL (≈ 158 µM)
MIC ([1]; Table 2 section r2574-r2600, column 5, 18 hours at 35° C., read-out: MIC, strain of column 5): 64 µg/mL (≈ 79.1 µM)
MIC ([1]; Table 2 section r2574-r2600, column 7, 18 hours at 35° C., read-out: MIC, strain not given): > 128 µg/mL
MIC ([1]; Table 2 section r2574-r2600, column 9, 18 hours at 35° C., read-out: MIC, strain of column 9): > 128 µg/mL
MIC ([1]; Table 2 section r2574-r2600, column 10, 18 hours at 35° C., read-out: MIC, strain of column 10): > 128 µg/mL
ED50 [2]: > 8 mg/kg
MIC (Streptococcus sp.; strain ATCC 6301, read-out: MIC Streptococcus pneumoniae (ATCC 6301)): 32 µg/mL (≈ 39.6 µM)
MIC (Streptococcus sp.; strain GC 1894, read-out: MIC Streptococcus pneumoniae (GC 1894)): 64 µg/mL (≈ 79.1 µM)
MIC (Streptococcus sp.; strain GC 4563, read-out: MIC Streptococcus pyogenes (GC 4563)): 64 µg/mL (≈ 79.1 µM)
MIC (Streptococcus sp.; strain GC 4564, read-out: MIC Streptococcus agalactiae (GC 4564)): 128 µg/mL (≈ 158 µM)
MIC (Streptococcus sp.; strain GC 4565, read-out: MIC Streptococcus pneumoniae (GC 4565)): 128 µg/mL (≈ 158 µM)
MIC (Staphylococcus sp.; Staphylococcus, read-out: MIC Coagulase Negative Staphylococcus (GC 4547)): 32 µg/mL (≈ 39.6 µM)
MIC (Staphylococcus sp.; Staphylococcus, read-out: MIC Coagulase Negative Staphylococcus (GC 4548)): 128 µg/mL (≈ 158 µM)
MIC (Staphylococcus sp.; Staphylococcus, read-out: MIC Coagulase Negative Staphylococcus (GC 4549)): 32 µg/mL (≈ 39.6 µM)
MIC (Staphylococcus sp.; Staphylococcus, read-out: MIC Coagulase Negative Staphylococcus (GC 4551)): 128 µg/mL (≈ 158 µM)
MIC (Staphylococcus sp.; Staphylococcus, read-out: MIC Coagulase Negative Staphylococcus (GC 6257)): 32 µg/mL (≈ 39.6 µM)
MIC (Staphylococcus sp.; Staphylococcus, read-out: MIC Staphylococcus aureus-SMITH (GC 4543)): 64 µg/mL (≈ 79.1 µM)
MIC (Staphylococcus sp.; read-out: MIC Staphylococcus aureus (ATCC 29213)): 128 µg/mL (≈ 158 µM)
MIC (Staphylococcus sp.; read-out: MIC Staphylococcus aureus (GC 1131)): > 128 µg/mL
MIC (Staphylococcus sp.; read-out: MIC Staphylococcus aureus (GC 3051)): 128 µg/mL (≈ 158 µM)
MIC (Staphylococcus sp.; read-out: MIC Staphylococcus aureus (GC 3053)): > 128 µg/mL
MIC (Staphylococcus sp.; read-out: MIC Staphylococcus aureus (GC 4541)): 128 µg/mL (≈ 158 µM)
MIC (Staphylococcus sp.; read-out: MIC Staphylococcus aureus (GC 4542)): 128 µg/mL (≈ 158 µM)
MIC (Staphylococcus sp.; read-out: MIC Staphylococcus aureus (GC 4544)): 128 µg/mL (≈ 158 µM)
MIC (Staphylococcus sp.; read-out: MIC Staphylococcus aureus (GC 4545)): 64 µg/mL (≈ 79.1 µM)
MIC (Staphylococcus sp.; read-out: MIC Staphylococcus haemolyticus (GC 4546)): 32 µg/mL (≈ 39.6 µM)
MIC Staphylococcus aureus (ATCC 29213) (Staphylococcus sp.; strain ATCC 29213): 128 µg/mL (≈ 158 µM)
MIC Staphylococcus aureus (GC 1131) (Staphylococcus sp.; strain GC 1131): >128 µg/mL
MIC Staphylococcus aureus (GC 3051) (Staphylococcus sp.; strain GC 3051): 128 µg/mL (≈ 158 µM)
MIC Staphylococcus aureus (GC 3053) (Staphylococcus sp.; strain GC 3053): >128 µg/mL
MIC Staphylococcus aureus (GC 4541) (Staphylococcus sp.; strain GC 4541): 128 µg/mL (≈ 158 µM)
MIC Staphylococcus aureus (GC 4542) (Staphylococcus sp.; strain GC 4542): 128 µg/mL (≈ 158 µM)
MIC Staphylococcus aureus (GC 4544) (Staphylococcus sp.; strain GC 4544): 128 µg/mL (≈ 158 µM)
MIC Staphylococcus aureus (GC 4545) (Staphylococcus sp.; strain GC 4545): 64 µg/mL (≈ 79.1 µM)
MIC Staphylococcus haemolyticus (GC 4546) (Staphylococcus sp.; strain GC 4546): 32 µg/mL (≈ 39.6 µM)
MIC Coagulase Negative Staphylococcus (GC 4547) (Staphylococcus sp.; strain GC 4547): 32 µg/mL (≈ 39.6 µM)
MIC Coagulase Negative Staphylococcus (GC 4548) (Staphylococcus sp.; strain GC 4548): 128 µg/mL (≈ 158 µM)
MIC Coagulase Negative Staphylococcus (GC 4549) (Staphylococcus sp.; strain GC 4549): 32 µg/mL (≈ 39.6 µM)
MIC Coagulase Negative Staphylococcus (GC 4551) (Staphylococcus sp.; strain GC 4551): 128 µg/mL (≈ 158 µM)
MIC Coagulase Negative Staphylococcus (GC 6257) (Staphylococcus sp.; strain GC 6257): 32 µg/mL (≈ 39.6 µM)
MIC Staphylococcus aureus-SMITH (GC 4543) (Staphylococcus sp.; strain SMITH GC 4543): 64 µg/mL (≈ 79.1 µM)
MIC (Escherichia coli; ATCC25922, Escherichia coli (ATCC 25922), read-out: MIC, Escherichia coli (ATCC 25922)): 32 µg/mL (≈ 39.6 µM)
MIC (Escherichia coli; Escherichia coli (GC 4559), read-out: MIC, Escherichia coli (GC 4559)): 16 µg/mL (≈ 19.8 µM)
MIC (Escherichia coli; Escherichia coli (GC 4560), read-out: MIC, Escherichia coli (GC 4560)): 32 µg/mL (≈ 39.6 µM)
MIC (Enterococcus sp.; Enterococcus avium (GC 4558), read-out: MIC, Enterococcus avium (GC 4558)): 128 µg/mL (≈ 158 µM)
MIC (Enterococcus sp.; Enterococcus faecalis (ATCC 29212), read-out: MIC, Enterococcus faecalis (ATCC 29212)): > 128 µg/mL
MIC (Enterococcus sp.; Enterococcus faecalis (GC 4553), read-out: MIC, Enterococcus faecalis (GC 4553)): > 128 µg/mL
MIC (Enterococcus sp.; Enterococcus faecalis (GC 4554), read-out: MIC, Enterococcus faecalis (GC 4554)): > 128 µg/mL
MIC (Enterococcus sp.; Enterococcus faecalis (GC 6189), read-out: MIC, Enterococcus faecalis (GC 6189)): > 128 µg/mL
MIC (Enterococcus sp.; Enterococcus faecium (GC 2243), read-out: MIC, Enterococcus faecium (GC 2243)): 128 µg/mL (≈ 158 µM)
MIC (Enterococcus sp.; Enterococcus faecium (GC 4556), read-out: MIC, Enterococcus faecium (GC 4556)): > 128 µg/mL
MIC (Enterococcus sp.; Enterococcus faecium (GC 4557), read-out: MIC, Enterococcus faecium (GC 4557)): 64 µg/mL (≈ 79.1 µM)
MIC (Enterococcus sp.; strain ATCC 29212, read-out: MIC Enterococcus faecalis (ATCC 29212)): > 128 µg/mL
MIC (Enterococcus sp.; strain GC 2242, read-out: MIC Enterococcus faecalis (GC 2242)): > 128 µg/mL
MIC (Enterococcus sp.; strain GC 2243, read-out: MIC Enterococcus faecium (GC 2243)): 128 µg/mL (≈ 158 µM)
MIC (Enterococcus sp.; strain GC 2691, read-out: MIC Enterococcus faecalis (GC 2691)): > 128 µg/mL
MIC (Enterococcus sp.; strain GC 3059, read-out: MIC Enterococcus faecalis (GC 3059)): > 128 µg/mL
MIC (Enterococcus sp.; strain GC 4552, read-out: MIC Enterococcus faecalis (GC 4552)): > 128 µg/mL
MIC (Enterococcus sp.; strain GC 4553, read-out: MIC Enterococcus faecalis (GC 4553)): > 128 µg/mL
MIC (Enterococcus sp.; strain GC 4554, read-out: MIC Enterococcus faecalis (GC 4554)): > 128 µg/mL
MIC (Enterococcus sp.; strain GC 4556, read-out: MIC Enterococcus faecium (GC 4556)): > 128 µg/mL
MIC (Enterococcus sp.; strain GC 4557, read-out: MIC Enterococcus faecium (GC 4557)): 64 µg/mL (≈ 79.1 µM)
MIC (Enterococcus sp.; strain GC 4558, read-out: MIC Enterococcus avium (GC 4558)): 128 µg/mL (≈ 158 µM)
MIC (Enterococcus sp.; strain GC 6189, read-out: MIC Enterococcus faecalis (GC 6189)): > 128 µg/mL
